Source: patent US20240317724A1, “3,4-METHYLENEDIOXYMETHAMPHETAMINE AND RELATED PS[…] USES THEREOF” (Terran Biosciences Inc., priority 2021, published 2024)

Assay: Single oral (PO) dose pharmacokinetics study in rats; plasma concentration of MDMA (and prodrug) by LC-MS/MS
Conditions: male SD rats
[1] = 0.50 h after oral dosing of prodrug 10 mg/Kg
[2] = 1.00 h after oral dosing of prodrug 10 mg/Kg
[3] = 2.00 h after oral dosing of prodrug 10 mg/Kg
[4] = 4.00 h after oral dosing of prodrug 10 mg/Kg
[5] = 7.00 h after oral dosing of prodrug 10 mg/Kg
[6] = 24.0 h after oral dosing of prodrug 10 mg/Kg

| Compound | Mean plasma concentration of metabolite MDMA [1] | Mean plasma concentration of metabolite MDMA [2] | Mean plasma concentration of metabolite MDMA [3] | Mean plasma concentration of metabolite MDMA [4] | Mean plasma concentration of metabolite MDMA [5] | Mean plasma concentration of metabolite MDMA [6] |
| --- | --- | --- | --- | --- | --- | --- |
| CC(Cc1ccc2c(c1)OCO2)N(C)C(=O)OC1CCOC1 (stereo not drawn) [THF carbamate prodrug of MDMA, tetrahydrofuran-3-yl N-[2-(1,3-benzodioxol-5-yl)-1-methyl-ethyl]-N-methyl-carbamate] | BLQ (BLQ: Below Lower Limit of Quantification (0.5 ng/mL)) | BLQ (BLQ: Below Lower Limit of Quantification (0.5 ng/mL)) | BLQ (BLQ: Below Lower Limit of Quantification (0.5 ng/mL)) | BLQ (BLQ: Below Lower Limit of Quantification (0.5 ng/mL)) | BLQ (BLQ: Below Lower Limit of Quantification (0.5 ng/mL)) | BLQ (BLQ: Below Lower Limit of Quantification (0.5 ng/mL)) |
| CC(Cc1ccc2c(c1)OCO2)N(C)C(=O)OCC(C)(C)COC(=O)C(C)(C)C (stereo not drawn) [[3-[[2-(1,3-Benzodioxol-5-yl)-1-methyl-ethyl]-methyl-carbamoyl]oxy-2,2-dimethyl-propyl] 2,2-dimethylpropanoate] | BLQ (BLQ: Below Lower Limit of Quantification (0.5 ng/mL)) | BLQ (BLQ: Below Lower Limit of Quantification (0.5 ng/mL)) | BLQ (BLQ: Below Lower Limit of Quantification (0.5 ng/mL)) | BLQ (BLQ: Below Lower Limit of Quantification (0.5 ng/mL)) | BLQ (BLQ: Below Lower Limit of Quantification (0.5 ng/mL)) | BLQ (BLQ: Below Lower Limit of Quantification (0.5 ng/mL)) |
| CC(Cc1ccc2c(c1)OCO2)N(C)C(=O)N(C)C (stereo not drawn) [Dimethylurea prodrug of MDMA, 1-[2-(2H-1,3-Benzodioxol-5-yl)-1-methyl-ethyl]-1,3,3-trimethylurea] | BLQ (BLQ: Below Lower Limit of Quantification (0.5 ng/mL)) | BLQ (BLQ: Below Lower Limit of Quantification (0.5 ng/mL)) | BLQ (BLQ: Below Lower Limit of Quantification (0.5 ng/mL)) | BLQ (BLQ: Below Lower Limit of Quantification (0.5 ng/mL)) | BLQ (BLQ: Below Lower Limit of Quantification (0.5 ng/mL)) | BLQ (BLQ: Below Lower Limit of Quantification (0.5 ng/mL)) |
| CC(=O)OCC(C)(C)CC(=O)N(C)C(C)Cc1ccc2c(c1)OCO2 (stereo not drawn) [(3-{[2-(2H-1,3-Benzodioxol-5-yl)-1-methylethyl]-N-methylcarbamoyl}-2,2-dimethylpropyl acetate] | BLQ (BLQ: Below Lower Limit of Quantification (0.5 ng/mL)) | BLQ (BLQ: Below Lower Limit of Quantification (0.5 ng/mL)) | BLQ (BLQ: Below Lower Limit of Quantification (0.5 ng/mL)) | BLQ (BLQ: Below Lower Limit of Quantification (0.5 ng/mL)) | BLQ (BLQ: Below Lower Limit of Quantification (0.5 ng/mL)) | BLQ (BLQ: Below Lower Limit of Quantification (0.5 ng/mL)) |
| CC(Cc1ccc2c(c1)OCO2)N(C)C(=O)CN(C)C(=O)[C@@H](N)Cc1ccccc1 (stereo partly drawn) [SarcPhe prodrug of MDMA, (2S)-2-amino-N-[2-[[2-(1,3-benzodioxol-5-yl)-1-methyl-ethyl]-methyl-amino]-2-oxo-ethyl]-N-methyl-3-phenyl-propanamide] | BLQ (BLQ: Below Lower Limit of Quantification (0.5 ng/mL)) | BLQ (BLQ: Below Lower Limit of Quantification (0.5 ng/mL)) | BLQ (BLQ: Below Lower Limit of Quantification (0.5 ng/mL)) | BLQ (BLQ: Below Lower Limit of Quantification (0.5 ng/mL)) | BLQ (BLQ: Below Lower Limit of Quantification (0.5 ng/mL)) | BLQ (BLQ: Below Lower Limit of Quantification (0.5 ng/mL)) |
| CC(Cc1ccc2c(c1)OCO2)N(C)C(=O)CCCCC(=O)O (stereo not drawn) [Adipate prodrug of MDMA, 5-{[2-(2H-1,3-Benzodioxol-5-yl)-1-methyl-ethyl]-N-methylcarbamoyl}valeric acid] | BLQ (BLQ: Below Lower Limit of Quantification (0.5 ng/mL)) | BLQ (BLQ: Below Lower Limit of Quantification (0.5 ng/mL)) | BLQ (BLQ: Below Lower Limit of Quantification (0.5 ng/mL)) | BLQ (BLQ: Below Lower Limit of Quantification (0.5 ng/mL)) | BLQ (BLQ: Below Lower Limit of Quantification (0.5 ng/mL)) | BLQ (BLQ: Below Lower Limit of Quantification (0.5 ng/mL)) |
| CC(C)COC(=O)N(C)C(C)Cc1ccc2c(c1)OCO2 (stereo not drawn) [Isobutyl carbamate prodrug of MDMA, isobutyl N-[2-(1,3-benzodioxol-5-yl)-1-methyl-ethyl]-N-methyl-carbamate] | BLQ (BLQ: Below Lower Limit of Quantification (0.5 ng/mL)) | BLQ (BLQ: Below Lower Limit of Quantification (0.5 ng/mL)) | BLQ (BLQ: Below Lower Limit of Quantification (0.5 ng/mL)) | BLQ (BLQ: Below Lower Limit of Quantification (0.5 ng/mL)) | BLQ (BLQ: Below Lower Limit of Quantification (0.5 ng/mL)) | BLQ (BLQ: Below Lower Limit of Quantification (0.5 ng/mL)) |
| CCCOC(=O)N(C)C(C)Cc1ccc2c(c1)OCO2 (stereo not drawn) [Propyl carbamate prodrug of MDMA, propyl N-[2-(1,3-benzodioxol-5-yl)-1-methyl-ethyl]-N-methyl-carbamate] | BLQ (BLQ: Below Lower Limit of Quantification (0.5 ng/mL)) | BLQ (BLQ: Below Lower Limit of Quantification (0.5 ng/mL)) | BLQ (BLQ: Below Lower Limit of Quantification (0.5 ng/mL)) | BLQ (BLQ: Below Lower Limit of Quantification (0.5 ng/mL)) | BLQ (BLQ: Below Lower Limit of Quantification (0.5 ng/mL)) | BLQ (BLQ: Below Lower Limit of Quantification (0.5 ng/mL)) |
| CC(Cc1ccc2c(c1)OCO2)N(C)C(=O)C(C)(C)C (stereo not drawn) [Tert-butyl amide prodrug of MDMA, N-[2-(2H-1,3-Benzodioxol-5-yl)-1-methyl-ethyl]-N-methyl-2,2-dimethylpropionamide] | BLQ (BLQ: Below Lower Limit of Quantification (0.5 ng/mL)) | BLQ (BLQ: Below Lower Limit of Quantification (0.5 ng/mL)) | BLQ (BLQ: Below Lower Limit of Quantification (0.5 ng/mL)) | BLQ (BLQ: Below Lower Limit of Quantification (0.5 ng/mL)) | BLQ (BLQ: Below Lower Limit of Quantification (0.5 ng/mL)) | BLQ (BLQ: Below Lower Limit of Quantification (0.5 ng/mL)) |
